How the values were obtained:
[1] = system: Beet Armyworm (BAW) (Spodoptera exigua); test: Bioassay on beet armyworm (BAW), 128-well diet tray assay; assay type: in vivo; details: Spodoptera exigua; Beet armyworm, 50 μg/cm^2; read-out: % Mortality BAW 50 μg/cm^2
Protocol: (§1) Bioassays on Beet Armyworm (“BAW”) and Corn Earworm (“CEW”)
(§2) Certain molecules disclosed in this document were tested against BAW and CEW using procedures described in the following examples. In the reporting of the results, the “BAW & CEW Rating Table” was used (See Table Section).
Bioassays on BAW (Spodoptera exigua)
Bioassays on BAW were conducted using a 128-well diet tray assay. One to five second instar BAW larvae were placed in each well (3 mL) of the diet tray that had been previously filled with 1 mL of artificial diet to which 50 μg/cm^2 of the test compound (dissolved in 50 μL of 90:10 acetone-water mixture) had been applied (to each of eight wells) and then allowed to dry. Trays were covered with a clear self-adhesive cover and held at 25° C., 14:10 light-dark for five to seven days. Percent mortality was recorded for the larvae in each well; activity in the eight wells was then averaged. The results are indicated in the table entitled “Table 5: Biological Results” (See Table Section).

[2] = system: Corn Earworm (CEW) (Helicoverpa zea); test: Bioassay on corn earworm (CEW), 128-well diet tray assay; assay type: in vivo; details: Helicoverpa zea; Corn earworm, 50 μg/cm^2; read-out: % Mortality CEW 50 μg/cm^2
Protocol: as §1, §2
Bioassays on CEW (Helicoverpa zea)
Bioassays on CEW were conducted using a 128-well diet tray assay. One to five second instar CEW larvae were placed in each well (3 mL) of the diet tray that had been previously filled with 1 mL of artificial diet to which 50 μg/cm^2 of the test compound (dissolved in 50 μL of 90:10 acetone-water mixture) had been applied (to each of eight wells) and then allowed to dry. Trays were covered with a clear self-adhesive cover and held at 25° C., 14:10 light-dark for five to seven days. Percent mortality was recorded for the larvae in each well; activity in the eight wells was then averaged. The results are indicated in the table entitled “Table 5: Biological Results” (See Table Section).

SMILES	pest or weed control at 50 µg/cm2, 50 µg/cm2 [1]	pest or weed control at 50 µg/cm2, 50 µg/cm2 [2]
Cc1cccc(C)c1/N=C(/N/N=C/c1ccc(-c2ncn(-c3ccc(OC(F)(F)F)cc3)n2)cc1)SCC(=O)N1CCNCC1 [Compound 67C]	50 to 100%	50 to 100%
O=C1CS/C(=N\N=C\c2ccc(-c3ncn(-c4ccc(OC(F)(F)F)cc4)n3)cc2)N1c1c(Cl)cccc1Cl [Compound 70C]	50 to 100%	50 to 100%
Cc1cccc(C)c1N1C(=O)CS/C1=N\N=C\c1ccc(-c2ncn(-c3ccc(OC(F)(F)F)cc3)n2)cc1 [Compound 71C]	50 to 100%	50 to 100%
CCN(CC)c1ccc(-c2cs/c(=N\N=C\c3ccc(-c4ncn(-c5ccc(OC(F)(F)F)cc5)n4)cc3)n2-c2c(C)cccc2C)cc1 [Compound 74C]	50 to 100%	50 to 100%
COc1cc(C)c(-n2c(C(=O)O)cs/c2=N\N=C\c2ccc(-c3ncn(-c4ccc(OC(F)(F)F)cc4)n3)cc2)c(C)c1 [Compound 80C]	50 to 100%	50 to 100%
Cc1cccc(C)c1/N=C1\SCC(=O)N1/N=C/c1ccc(-c2ncn(-c3ccc(OC(F)(F)F)cc3)n2)cc1 [Compound 81C]	50 to 100%	50 to 100%
O=C1CS/C(=N\N=C\c2ccc(-c3ncn(-c4ccc(OC(F)(F)F)cc4)n3)cc2)N1c1c(F)cccc1F [Compound 89C]	50 to 100%	50 to 100%
Cc1cccc(Cl)c1N1C(=O)CS/C1=N\N=C\c1ccc(-c2ncn(-c3ccc(OC(F)(F)F)cc3)n2)cc1 [Compound 93C]	50 to 100%	50 to 100%
CCc1ccccc1N1C(=O)CS/C1=N\N=C\c1ccc(-c2ncn(-c3ccc(OC(F)(F)F)cc3)n2)cc1 [Compound 94C]	50 to 100%	50 to 100%
CN(C)c1cccc(N2C(=O)CS/C2=N\N=C\c2ccc(-c3ncn(-c4ccc(OC(F)(F)F)cc4)n3)cc2)c1 [Compound 97C]	50 to 100%	50 to 100%
O=C1CS/C(=N\N=C\c2ccc(-c3ncn(-c4ccc(OC(F)(F)F)cc4)n3)cc2)N1c1c(Br)cccc1Br [Compound 99C]	50 to 100%	50 to 100%
Cc1cccc(C)c1N1C(=O)CS/C1=N\N=C\c1ccc(-c2ncn(-c3ccc(OC(F)(F)C(F)(F)F)cc3)n2)cc1 [Compound 100C]	50 to 100%	50 to 100%
COc1cc(C)c(N2C(=O)CS/C2=N\N=C\c2ccc(-c3ncn(-c4ccc(OC(F)(F)F)cc4)n3)cc2)c(C)n1 [Compound 101C]	50 to 100%	50 to 100%
O=C1CS/C(=N\N=C\c2ccc(-c3cn(-c4ccc(OC(F)(F)F)cc4)cn3)cc2)N1c1c(Cl)cccc1Cl [Compound 102C]	50 to 100%	50 to 100%
Cc1cccc(C)c1N1C(=O)CS/C1=N\N=C\c1ccc(-c2ccn(-c3ccc(OC(F)(F)F)cc3)n2)cc1 [Compound 103C]	50 to 100%	50 to 100%
Cc1cccc(C)c1N1C(=O)CS/C1=N\N=C\c1ccc(-c2cnn(-c3ccc(OC(F)(F)F)cc3)c2)cc1 [Compound 104C]	50 to 100%	50 to 100%
Cc1cc(Cl)cc(C)c1N1C(=O)CS/C1=N\N=C\c1ccc(-c2ncn(-c3ccc(OC(F)(F)F)cc3)n2)cc1 [Compound 105C]	50 to 100%	50 to 100%
O=C1CS/C(=N\N=C\c2ccc(-c3ncn(-c4ccc(OC(F)(F)F)cc4)n3)cc2)N1c1ccccc1Cl [Compound 106C]	50 to 100%	50 to 100%
CCC(C)c1ccccc1N1C(=O)CS/C1=N\N=C\c1ccc(-c2ncn(-c3ccc(OC(F)(F)F)cc3)n2)cc1 (stereo not shown) [Compound 108C]	50 to 100%	50 to 100%
COC(=O)C1CC(c2ccc(/C=N/N=C3\SCC(=O)N3c3c(Cl)cccc3Cl)cc2)=NN1c1ccc(OC(F)(F)F)cc1 (stereo not shown) [Compound 109C]	50 to 100%	50 to 100%
COC(=O)C1CC(c2ccc(/C=N/N=C3\SCC(=O)N3c3c(C)cccc3C)cc2)=NN1c1ccc(OC(F)(F)F)cc1 (stereo not shown) [Compound 110C]	50 to 100%	50 to 100%

SMILES	pest or weed control at 50 µg/cm2, 50 µg/cm2 [1]	pest or weed control at 50 µg/cm2, 50 µg/cm2 [2]
Cc1ccccc1N1C(=O)CS/C1=N\N=C\c1ccc(-c2ncn(-c3ccc(OC(F)(F)F)cc3)n2)cc1 [Compound 113C]	50 to 100%	50 to 100%
COc1ccc(N2C(=O)CS/C2=N\N=C\c2ccc(-c3ncn(-c4ccc(OC(F)(F)F)cc4)n3)cc2)c(C)c1 [Compound 114C]	50 to 100%	50 to 100%
CCOc1ccccc1N1C(=O)CS/C1=N\N=C\c1ccc(-c2ncn(-c3ccc(OC(F)(F)F)cc3)n2)cc1 [Compound 116C]	50 to 100%	50 to 100%
Cc1cccnc1N1C(=O)CS/C1=N\N=C\c1ccc(-c2ncn(-c3ccc(OC(F)(F)F)cc3)n2)cc1 [Compound 117C]	50 to 100%	50 to 100%
Cc1cnccc1N1C(=O)CS/C1=N\N=C\c1ccc(-c2ncn(-c3ccc(OC(F)(F)F)cc3)n2)cc1 [Compound 118C]	50 to 100%	50 to 100%
CC(C)Cc1ccccc1N1C(=O)CS/C1=N\N=C\c1ccc(-c2ncn(-c3ccc(OC(F)(F)F)cc3)n2)cc1 [Compound 119C]	50 to 100%	50 to 100%
CC(C)c1ccccc1N1C(=O)CS/C1=N\N=C\c1ccc(-c2ncn(-c3ccc(C(F)(F)F)cc3)n2)cc1 [Compound 120C]	50 to 100%	50 to 100%
C/C(=N\N=C1/SCC(=O)N1c1ccccc1C(C)C)c1ccc(-c2ncn(-c3ccc(OC(F)(F)F)cc3)n2)cc1 [Compound 122C]	50 to 100%	50 to 100%
CCc1cccnc1N1C(=O)CS/C1=N\N=C\c1ccc(-c2ncn(-c3ccc(OC(F)(F)F)cc3)n2)cc1 [Compound 123C]	50 to 100%	50 to 100%
O=C1CS/C(=N\N=C\c2ccc(-c3ncn(-c4ccc(OC(F)(F)F)cc4)n3)cc2)N1c1ccccc1OC(F)(F)F [Compound 124C]	50 to 100%	50 to 100%
CC(C)(C)c1ccccc1N1C(=O)CS/C1=N\N=C\c1ccc(-c2ncn(-c3ccc(OC(F)(F)F)cc3)n2)cc1 [Compound 125C]	50 to 100%	50 to 100%
O=C1CS/C(=N\N=C\c2ccc(-c3ncn(-c4ccc(OC(F)(F)F)cc4)n3)cc2)N1c1ccccc1OC(F)F [Compound 126C]	50 to 100%	50 to 100%
CC1S/C(=N\N=C\c2ccc(-c3ncn(-c4ccc(OC(F)(F)F)cc4)n3)cc2)N(c2ccccc2C2CC2)C1=O (stereo not shown) [Compound 127C]	50 to 100%	50 to 100%
CCCc1ccccc1N1C(=O)C(C)S/C1=N\N=C\c1ccc(-c2ncn(-c3ccc(OC(F)(F)F)cc3)n2)cc1 (stereo not shown) [Compound 128C]	50 to 100%	50 to 100%
CC1S/C(=N\N=C\c2ccc(-c3ncn(-c4ccc(OC(F)(F)F)cc4)n3)cc2)N(c2c(Cl)cccc2Cl)C1=O (stereo not shown) [Compound 129C]	50 to 100%	50 to 100%
CC1S/C(=N\N=C\c2ccc(-c3ncn(-c4ccc(OC(F)(F)F)cc4)n3)cc2)N(c2c(F)cccc2F)C1=O (stereo not shown) [Compound 131C]	50 to 100%	50 to 100%
CC(C)c1ccccc1N1CCS/C1=N\N=C\c1ccc(-c2ncn(-c3ccc(C(F)(F)F)cc3)n2)cc1 [Compound 134C]	50 to 100%	50 to 100%
CCC(C)c1ccccc1N1CCS/C1=N\N=C\c1ccc(-c2ncn(-c3ccc(OC(F)(F)F)cc3)n2)cc1 (stereo not shown) [Compound 135C]	50 to 100%	50 to 100%
CCc1cccc(C)c1N1CCS/C1=N\N=C\c1ccc(-c2ncn(-c3ccc(OC(F)(F)F)cc3)n2)cc1 [Compound 136C]	50 to 100%	50 to 100%
COc1ccc(N2CCS/C2=N\N=C\c2ccc(-c3ncn(-c4ccc(OC(F)(F)F)cc4)n3)cc2)c(C)c1 [Compound 137C]	50 to 100%	50 to 100%

Source: patent publication US9018388B2, “Pesticidal compositions and processes related thereto” (Dow AgroSciences LLC, priority 2012, dated 2015)
